Laboratory results published in ChEMBL document CHEMBL1201862, “PubChem BioAssay data set” (2004).
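Assay format: 96-well plates, 48-hour exposure. GI50 = concentration required for 50% inhibition of growth.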 Calls of active or inactive are those of the source. Rule as the data show it: active = GI50 up to about 1.1 µM and inactive = higher.

Legend:
Experiment in all cases: NCI-60 cell line screen, 48 h
UACC-257 = tested on: UACC-257
NCI-H23 = tested on: NCI-H23
SF-295 = tested on: SF-295
CAKI-1 = tested on: CAKI-1
NCI-H522 = tested on: NCI-H522
SNB-75 = tested on: SNB-75
ACHN = tested on: ACHN
MDA-MB-435 = tested on: MDA-MB-435
K562 = tested on: K562
IGROV-1 = tested on: IGROV-1
RPMI-8226 = tested on: RPMI-8226
TK-10 = tested on: TK-10
OVCAR-4 = tested on: OVCAR-4
A498 = tested on: A498
SK-MEL-5 = tested on: SK-MEL-5
CCRF-CEM = tested on: CCRF-CEM
HCT-116 = tested on: HCT-116
RXF 393 = tested on: RXF 393
SR = tested on: SR
MCF7 = tested on: MCF7

Measured: GI50

CCOC(=O)c1ccc(-c2cc(C)no2)[nH]1
inactive: UACC-257 > 100 µM | NCI-H23 > 100 µM | SF-295 > 100 µM | CAKI-1 28.8 µM | NCI-H522 76.2 µM | SNB-75 60.1 µM | ACHN > 100 µM | MDA-MB-435 11.4 µM | K562 32.5 µM | IGROV-1 > 100 µM | RPMI-8226 > 100 µM | TK-10 > 100 µM | OVCAR-4 74.6 µM | A498 63.7 µM | SK-MEL-5 81.3 µM | CCRF-CEM > 100 µM | HCT-116 75.3 µM | RXF 393 > 100 µM

COc1cc2c(cc1OC)[C@@H]([C@H](O)c1ccccc1)NCC2
inactive: UACC-257 > 100 µM | SR > 100 µM | NCI-H23 > 100 µM | SF-295 > 100 µM | CAKI-1 > 84.9 µM | NCI-H522 > 100 µM | SNB-75 55 µM | ACHN > 100 µM | K562 > 100 µM | IGROV-1 > 100 µM | RPMI-8226 > 100 µM | TK-10 > 100 µM | OVCAR-4 > 100 µM | A498 > 100 µM | SK-MEL-5 > 100 µM | CCRF-CEM > 100 µM | HCT-116 > 100 µM | RXF 393 > 100 µM

N#CC(c1ccccn1)c1nc2ccccc2[nH]1 (stereo unspecified)
inactive: UACC-257 > 100 µM | SR 38.5 µM | NCI-H23 > 100 µM | SF-295 > 100 µM | CAKI-1 > 100 µM | NCI-H522 > 100 µM | SNB-75 49.3 µM | ACHN > 100 µM | K562 > 100 µM | RPMI-8226 54 µM | TK-10 > 100 µM | OVCAR-4 81.1 µM | A498 > 100 µM | SK-MEL-5 > 100 µM | CCRF-CEM > 100 µM | HCT-116 98.4 µM

OCC(O)C(OC1OC(CO)C(O)C(O)C1O)c1nn(-c2ccc(F)cc2)c2nc3cc(Cl)c(Cl)cc3cc12 (stereo unspecified)
inactive: UACC-257 > 100 µM | SR > 100 µM | NCI-H23 > 100 µM | SF-295 > 100 µM | NCI-H522 > 100 µM | SNB-75 > 100 µM | ACHN > 100 µM | K562 > 100 µM | RPMI-8226 > 100 µM | TK-10 > 100 µM | OVCAR-4 > 100 µM | A498 > 100 µM | CCRF-CEM > 100 µM | HCT-116 > 100 µM | RXF 393 > 100 µM

Cn1c(C(C#N)c2cc(Cl)ncn2)nc2ccccc21 (stereo unspecified)
inactive: UACC-257 > 100 µM | NCI-H23 > 100 µM | SF-295 > 100 µM | CAKI-1 > 100 µM | NCI-H522 > 100 µM | SNB-75 > 100 µM | ACHN > 100 µM | MDA-MB-435 > 100 µM | IGROV-1 > 100 µM | RPMI-8226 > 100 µM | TK-10 > 100 µM | OVCAR-4 > 100 µM | A498 > 100 µM | SK-MEL-5 > 100 µM | HCT-116 > 100 µM | RXF 393 > 100 µM

Cc1ccccc1NC(=O)/C=N/O
inactive: UACC-257 > 100 µM | SR > 100 µM | NCI-H23 > 100 µM | SF-295 > 100 µM | CAKI-1 > 100 µM | NCI-H522 > 100 µM | SNB-75 > 100 µM | ACHN > 100 µM | K562 > 100 µM | IGROV-1 > 100 µM | RPMI-8226 > 100 µM | TK-10 > 100 µM | OVCAR-4 > 100 µM | A498 > 100 µM | SK-MEL-5 > 100 µM | HCT-116 > 100 µM | RXF 393 > 100 µM
active: CCRF-CEM < 0.01 µM

O=P(O)(O)c1ccc(-c2ccc(I)cc2)cc1
inactive: UACC-257 > 100 µM | SR > 100 µM | NCI-H23 > 100 µM | SF-295 > 10 µM | CAKI-1 > 100 µM | NCI-H522 > 100 µM | MCF7 > 100 µM | SNB-75 65 µM | ACHN > 100 µM | K562 > 100 µM | IGROV-1 > 100 µM | RPMI-8226 > 100 µM | TK-10 > 100 µM | OVCAR-4 > 100 µM | SK-MEL-5 > 100 µM | CCRF-CEM > 100 µM | HCT-116 > 100 µM | RXF 393 13.5 µM

CCOP(=O)(OCC)[C@H]1OC(C)(C)O[C@@H]1CO
inactive: UACC-257 > 100 µM | NCI-H23 > 100 µM | SF-295 > 100 µM | CAKI-1 > 100 µM | NCI-H522 > 100 µM | MCF7 > 100 µM | ACHN > 100 µM | MDA-MB-435 > 100 µM | IGROV-1 > 100 µM | RPMI-8226 > 100 µM | TK-10 > 100 µM | OVCAR-4 > 100 µM | A498 > 100 µM | SK-MEL-5 > 100 µM | CCRF-CEM > 100 µM | HCT-116 > 100 µM

Cc1cc(C[C@H]2O[C@@H]3OC(C)(C)O[C@@H]3[C@H]3OC(C)(C)O[C@H]32)c2ccccc2n1
inactive: UACC-257 > 100 µM | SR 34.8 µM | NCI-H23 52.7 µM | SF-295 > 100 µM | CAKI-1 56.6 µM | NCI-H522 16 µM | SNB-75 > 100 µM | ACHN > 100 µM | MDA-MB-435 > 100 µM | K562 48.1 µM | IGROV-1 49.8 µM | RPMI-8226 27.1 µM | TK-10 > 100 µM | OVCAR-4 > 100 µM | A498 > 100 µM | SK-MEL-5 55.6 µM | CCRF-CEM 42.1 µM | HCT-116 72.6 µM | RXF 393 39.1 µM

CCO/C=N/C1=C(C#N)C(c2ccc(OC)c(OC)c2)c2c(-c3ccccc3)nn(-c3ccccc3)c2O1 (stereo unspecified)
inactive: UACC-257 > 100 µM | NCI-H23 15.4 µM | SF-295 11.1 µM | CAKI-1 17 µM | NCI-H522 10.6 µM | MCF7 16.6 µM | SNB-75 15.5 µM | ACHN 13.2 µM | MDA-MB-435 17 µM | K562 6.68 µM | IGROV-1 3.16 µM | RPMI-8226 21.4 µM | SK-MEL-5 12 µM | CCRF-CEM 2.23 µM | HCT-116 13.1 µM | RXF 393 12.2 µM

CCNC(=O)COc1ccc(Cl)cc1Cl
inactive: UACC-257 > 100 µM | SR > 100 µM | NCI-H23 > 100 µM | SF-295 > 100 µM | CAKI-1 > 100 µM | NCI-H522 > 100 µM | SNB-75 > 100 µM | ACHN > 100 µM | K562 > 100 µM | IGROV-1 > 100 µM | RPMI-8226 > 100 µM | A498 > 100 µM | SK-MEL-5 > 100 µM | HCT-116 > 100 µM

COc1ccc(C2CC3(c4ccccc4)ON=C(c4ccccc4)N3c3ccccc3S2)cc1 (stereo unspecified)
inactive: UACC-257 > 100 µM | NCI-H23 > 100 µM | SF-295 > 100 µM | CAKI-1 > 100 µM | NCI-H522 > 100 µM | MCF7 > 100 µM | SNB-75 > 100 µM | ACHN > 100 µM | MDA-MB-435 > 100 µM | IGROV-1 > 100 µM | RPMI-8226 > 100 µM | TK-10 > 100 µM | OVCAR-4 > 100 µM | A498 > 100 µM | SK-MEL-5 > 100 µM | CCRF-CEM > 100 µM | HCT-116 > 100 µM | RXF 393 > 100 µM

O=C(Nn1c(-c2ccccc2)nc2ccccc2c1=O)c1ccccn1
inactive: UACC-257 > 100 µM | SR > 100 µM | NCI-H23 > 100 µM | SF-295 98.9 µM | NCI-H522 72.8 µM | SNB-75 42.1 µM | ACHN > 100 µM | MDA-MB-435 > 100 µM | K562 78.5 µM | IGROV-1 > 100 µM | RPMI-8226 > 100 µM | TK-10 > 100 µM | OVCAR-4 > 100 µM | A498 15.4 µM | SK-MEL-5 37.7 µM | CCRF-CEM 41.5 µM | HCT-116 57.4 µM | RXF 393 45.3 µM

Cc1ccccc1NC(=O)/C(=N\NC(N)=S)C(C#N)c1ccccc1 (stereo unspecified)
inactive: UACC-257 > 100 µM | SR > 100 µM | NCI-H23 > 100 µM | SF-295 > 100 µM | NCI-H522 > 100 µM | SNB-75 > 100 µM | ACHN > 100 µM | K562 > 100 µM | IGROV-1 > 100 µM | RPMI-8226 > 100 µM | TK-10 > 100 µM | OVCAR-4 > 100 µM | A498 > 100 µM | SK-MEL-5 > 100 µM | CCRF-CEM > 100 µM | HCT-116 > 100 µM | RXF 393 > 100 µM

CC(C)C1=CC23CCC4C(C)(C(=O)O)CCCC4(C)C2CC1C1C(=O)N(c2ccc(C(=O)O)cc2)C(=O)C13 (stereo unspecified)
inactive: UACC-257 > 100 µM | NCI-H23 > 100 µM | SF-295 > 100 µM | CAKI-1 > 100 µM | NCI-H522 > 100 µM | MCF7 > 100 µM | SNB-75 > 100 µM | ACHN > 100 µM | MDA-MB-435 > 100 µM | K562 > 100 µM | IGROV-1 > 100 µM | RPMI-8226 > 100 µM | TK-10 > 100 µM | OVCAR-4 > 100 µM | SK-MEL-5 > 100 µM | HCT-116 > 100 µM | RXF 393 > 100 µM

CC12CCC(=O)C[C@H]1CCC(OC=O)C2Br (stereo partly specified)
inactive: UACC-257 > 100 µM | SR > 100 µM | NCI-H23 > 100 µM | SF-295 > 100 µM | CAKI-1 > 100 µM | NCI-H522 > 100 µM | SNB-75 > 100 µM | ACHN > 100 µM | K562 > 100 µM | IGROV-1 > 100 µM | RPMI-8226 > 100 µM | TK-10 > 100 µM | OVCAR-4 > 100 µM | A498 > 100 µM | SK-MEL-5 > 100 µM | CCRF-CEM > 100 µM | HCT-116 > 100 µM
